Source: patent US9121022B2, “Method for controlling herbicide-resistant plants” (priority 2010, dated 2015)

What was measured:
[1] = test system: Nicotiana benthamiana phytoene desaturase; assay: topical PDS oligonucleotides/polynucleotides on tobacco, bleaching and chlorophyll (Example 10); assay type: in vivo; conditions: another assay
Description: The target gene used was a Nicotiana benthamiana phytoene desaturase (SEQ ID NO:2), shown in FIG. 10; the segment consisting of nucleotides 421-1120 of SEQ ID NO:2 (underlined text in FIG. 10) was used to design a 700-mer dsRNA polynucleotide (“PDS 700-mer”) and the segment consisting of nucleotides 914-1113 of SEQ ID NO:2 (bolded underlined text in FIG. 10) was used to design a 200-mer dsRNA polynucleotide (“PDS 200-mer”). FIG. 11 schematically depicts the location of the sequences of these oligonucleotides and polynucleotides in relation to the […] (SEQ ID NO:2) sequence. Non-plant sequences obtained from corn rootworm (“CRW”), SEQ ID NOs:27, 28, 29, and 30 were used as non-homologous controls. Some of the polynucleotides included a T7 promoter sequence (indicated by lower-case text in Table 3) that is a promoter recognized by a bacteriophage T7 RNA polymerase.
The following procedure was used for all assays described in this example. Four-week old Nicotiana benthamiana plants were used in all assays. Plants were treated with 0.1% SILWET L-77® brand surfactant solution freshly made with ddH2O. Two fully expanded leaves per plant (one cotyledon, one true leaf) were dipped into the SILWET L-77® brand surfactant solution for a few seconds, and allowed to dry for 15-30 minutes before application of the polynucleotide composition. Final concentration for each oligonucleotide or polynucleotide was 25 microM (in 0.01% SILWET L-77® brand surfactant, 5 mM sodium phosphate buffer, pH 6.8) unless otherwise stated. 20 microliters of the solution was applied to the top surface of each of the two pre-treated leaves to provide a total of 40 microliters (1 nmol oligonucleotide or polynucleotide) for each plant. Leaf bleaching was observed 3 days post treatment.
FIG. 13 illustrates phenotypes observed at day 12 after treatment in another assay of the effect from twelve combinations of polynucleotides or oligonucleotides (see Table 4). Table 4 also lists observations of visible bleaching of the plants at day 5 after treatment and the results of chlorophyll measurements taken at days 7 and 12 after treatment. Chlorophyll measurements are an indication of suppression of the target gene phytoene desaturase, and measurements were taken at 6 spots on the apical area, focussing on visibly bleached leaves or (in plants without visible bleaching) on leaves in equivalent locations on the plants; lower chlorophyll measurement values indicate suppression of phytoene desaturase.

[2] = test system: Nicotiana benthamiana plants (endogenous PDS, EPSPS, RuBisCO genes); assay: PDS, EPSPS or RuBisCO anti-sense polynucleotides on Nicotiana benthamiana, plant height and phenotype (Example 33); assay type: in vivo
Description: An anti-sense polynucleotide with the sequence […] (SEQ ID NO:34) was designed for the endogenous Nicotiana benthamiana phytoene desaturase (PDS) gene, which has the cDNA sequence fragments […] […] (SEQ ID NO:38). Anti-sense polynucleotides with the sequences […] (SEQ ID NO:279), […] (SEQ ID NO:280), […] (SEQ ID NO:281), […] (SEQ ID NO:282), […] (SEQ ID NO:283), and […] (SEQ ID NO:284) were designed for the endogenous Nicotiana benthamiana 5-enolpyruvylshikimate-3-phosphate synthase (EPSPS) gene, based on the Nicotiana benthamiana EPSPS cDNA sequence […] […] (SEQ ID NO:285), […] […] (SEQ ID NO:286), and […] […] (SEQ ID NO:287). Anti-sense polynucleotides with the sequences […] (AK195, RBCS—1-2-3-4, SEQ ID NO:288), […] (AK196, RBCS—1-2-3-4, SEQ ID NO:289), […] (AK197, RBCS—1-2-3-4, SEQ ID NO:290), […] (AK198, RBCS—1-2, SEQ ID NO:291), […] (AK199, RBCS—1-2, SEQ ID NO:292), […] (AK200, RBCS—3-4, SEQ ID NO:293), […] (AK201, RBCS—3-4, SEQ ID NO:294), and […] (AK202, RBCS—3-4, SEQ ID NO:295) were designed for the endogenous Nicotiana benthamiana ribulose-1,5-bisphosphate carboxylase oxygenase (RuBisCO) gene, based on the Nicotiana benthamiana chloroplastic RuBisCO small chain 2A cDNA sequence fragments • […] […]

CATCTCCTTTAATTGTACTGC (DNA, backbone not given here) [PDS 21-mer anti-sense ssDNA]
bleaching of apical leaves (FIG. 15) [1]: apical leaf bleaching observed | plant height (FIGS. 36A-36C) ([2]; 12 days (PDS and EPSPS) or 10 days (RuBisCO) after treatment): severe stunting | other phenotype ([2]; PDS 25 nanomoles, EPSPS and RuBisCO 50 nanomoles of each polynucleotide per plant): bleaching
